Earlier results on 1 substance are cited in patent publication US6096864A, “Peptides for use in wound treatment” (Johnson & Johnson Medical, Ltd., priority 1998, dated 2000).

For the data set, the system named is human fibroblast. Particulars: concentration range 2.5 mM to 25 mM.

Gly-Pro-Ala: the chemotactic activity result is “no chemotactic activity”.
